Results reported in patent publication US10130830B2, “Preservative systems comprising cationic surfactants” (Laboratorios Miret, S.A., priority 2005, dated 2018).
“And” between values parts separate entries of the source, which are not always exact repeats. Equal entries are not always repeated.

Experiments:
aerobic total count = test: Preservative action in cooked chicken breast, aerobic total count; assay type: cell-based; conditions: Example 9, cooked chicken, 0.2 g/kg
Procedure: (2) Determination of Preservative Action in Chicken Breast. Process of Preparation • 1. Fresh chicken breast was diced to pieces • 2. Brine (8.70% sodium chloride and 4.35% tripolyphosphate in water) was added to the fresh chicken in an amount of 11.5 g brine per 88.5 g meat in the control preparation and 11.5 g brine and 88.4 g meat in the preparations treated with preservative. • 3. Brine and meat were mixed during 15 minutes, in the preparations treated with preservative the preservative was added after 14 minutes in an amount of 0.2 g/kg. • 4. Vacuum refrigerate tumbling was made during 30 minutes. • 5. Samples were vacuum-packed in sterile bags and they were cooked at 85° C. for 30 minutes. • 6. The cooked chicken was refrigerated at 4° C. • 7. The cooked chicken was diced in irregular shapes. • 8. Then, the nuggets were stored at 10° C. in sterile vacuum-packed bags. Analysis […] Dilutions were made in buffered peptone water. Tryptone Soya Agar was harvested with each dilution and incubated at 35° C. for 48 hours. The mean value in log cfu/g of three samples per treatment and day of analysis was calculated.

Aerobes = test: Preservative action in cosmetic products (Antimicrobial Effectiveness Testing USP 24th Edition), aerobes; assay type: cell-based; conditions: Example 10, oil in water emulsion with non-ionic surfactant, 0.2 g/kg
From the text: (§1) (1) Determination of Preservative Action in Cosmetic Products. […] This assay consists of the contamination of the protecting formulations with an inoculum mixture of 10^8 cfu/ml concentration, for each of the micro-organisms, and the determination of the number of viable cells in time. This inoculum mixture is composed of the following microorganisms: [table] The cosmetic composition to be analysed is divided into sterile containers with 50 g of product for each flask. Each container is inoculated with 0.5 ml of inoculum (10^8 cfu/ml). The target concentration is 10^6 cfu/ml, approximately. All the containers are kept at a temperature between 20-25° C. and are protected from light. The level of the microbial contamination is checked at 0 hours, 7 days, 14 days and 28 days. The number of colonies is evaluated by dilution in buffer peptone with the appropriate neutraliser agent of the preservative. The culture media used for counting the microorganisms are: […] (2) Determination of Preservative Action in Chicken Breast. Process of Preparation • 1. Fresh chicken breast was diced to pieces • 2. Brine (8.70% sodium chloride and 4.35% tripolyphosphate in water) was added to the fresh chicken in an amount of 11.5 g brine per 88.5 g meat in the control preparation and 11.5 g brine and 88.4 g meat in the preparations treated with preservative. • 3. Brine and meat were mixed during 15 minutes, in the preparations treated with preservative the preservative was added after 14 minutes in an amount of 0.2 g/kg. • 4. Vacuum refrigerate tumbling was made during 30 minutes. • 5. Samples were vacuum-packed in sterile bags and they were cooked at 85° C. for 30 minutes. • 6. The cooked chicken was refrigerated at 4° C. • 7. The cooked chicken was diced in irregular shapes. • 8. Then, the nuggets were stored at 10° C. in sterile vacuum-packed bags. Analysis

Moulds = test: Preservative action in cosmetic products (Antimicrobial Effectiveness Testing USP 24th Edition), moulds; assay type: cell-based, Aspergillus niger; conditions: Example 10, oil in water emulsion with non-ionic surfactant, 0.2 g/kg
From the text: as §1

Yeast = test: Preservative action in cosmetic products (Antimicrobial Effectiveness Testing USP 24th Edition), yeast; assay type: cell-based, Candida albicans; conditions: Example 10, oil in water emulsion with non-ionic surfactant, 0.2 g/kg
From the text: as §1

[1] = day 56 (8 weeks), mean of triplicate

Structure (SMILES) | aerobic total count, mean (aerobic total count; day 0, mean of triplicate) | aerobic total count (aerobic total count; day 0, samples 1-3) | aerobic total count, mean (aerobic total count; day 7, mean of triplicate) | aerobic total count (aerobic total count; day 7, samples 1-3) | aerobic total count, mean (aerobic total count; day 14, mean of triplicate) | aerobic total count (aerobic total count; day 14, samples 1-3) | aerobic total count, mean (aerobic total count; day 21, mean of triplicate) | aerobic total count (aerobic total count; day 21, samples 1-3) | aerobic total count, mean (aerobic total count; day 28, mean of triplicate) | aerobic total count (aerobic total count; day 28, samples 1-3) | aerobic total count, mean (aerobic total count; day 35, mean of triplicate) | aerobic total count (aerobic total count; day 35, samples 1-3) | aerobic total count, mean (aerobic total count; day 42, mean of triplicate) | aerobic total count (aerobic total count; day 42, samples 1-3) | aerobic total count, mean (aerobic total count; day 49, mean of triplicate) | aerobic total count (aerobic total count; day 49, samples 1-3) | aerobic total count, mean (aerobic total count; [1]) | aerobic total count (aerobic total count; day 56, samples 1-3) | Aerobes count (Aerobes; 0 days) | Aerobes count (Aerobes; 7 days) | also measured
CC(=O)O.CCCCCCCCCCCC(=O)N[C@@H](CCCN=C(N)N)C(=O)OCC [LAE Ac, LAE acetate] | 2.0 log cfu/g | 2.0 log cfu/g | 2.0 log cfu/g | 2.0 log cfu/g | 2.0 log cfu/g | 2.0 log cfu/g | 2.1 log cfu/g | 2.1 log cfu/g and 2.3 log cfu/g and 2.0 log cfu/g | 2.5 log cfu/g | 3.0 log cfu/g and 2.1 log cfu/g and 2.3 log cfu/g | 2.5 log cfu/g | 2.3 log cfu/g and 2.8 log cfu/g and 2.5 log cfu/g | 3.1 log cfu/g | 3.1 log cfu/g and 2.8 log cfu/g and 3.3 log cfu/g | 3.4 log cfu/g | 3.3 log cfu/g and 3.0 log cfu/g and 3.9 log cfu/g | 3.9 log cfu/g | 3.8 log cfu/g and 4.0 log cfu/g and 3.9 log cfu/g | 6.0 log cfu/g | 2.5 log cfu/g | Aerobes count (Aerobes; 14 days): <2.0 log cfu/g; Moulds count (Moulds; 0 days): 4.1 log cfu/g; Moulds count (Moulds; 7 days): <2.0 log cfu/g; Moulds count (Moulds; 14 days): <2.0 log cfu/g; Yeast count (Yeast; 0 days): 5.3 log cfu/g; Yeast count (Yeast; 7 days): 2.1 log cfu/g; Yeast count (Yeast; 14 days): <2.0 log cfu/g
CCCCCCCCCCCC(=O)N[C@@H](CCCN=C(N)N)C(=O)OCC.N[C@@H](CCC(=O)O)C(=O)O [LAE Gl, LAE glutamate] | 2.0 log cfu/g | 2.0 log cfu/g | 2.0 log cfu/g | 2.0 log cfu/g | 2.0 log cfu/g | 2.0 log cfu/g | 2.1 log cfu/g | 2.1 log cfu/g and 2.2 log cfu/g and 2.0 log cfu/g | 2.3 log cfu/g | 2.5 log cfu/g and 2.1 log cfu/g and 2.2 log cfu/g | 2.4 log cfu/g | 2.3 log cfu/g and 2.5 log cfu/g | 2.7 log cfu/g | 2.6 log cfu/g and 2.8 log cfu/g | 3.2 log cfu/g | 3.2 log cfu/g and 3.0 log cfu/g and 3.5 log cfu/g | 3.5 log cfu/g | 3.5 log cfu/g and 3.8 log cfu/g and 3.3 log cfu/g | 6.1 log cfu/g | 2.3 log cfu/g | Aerobes count (Aerobes; 14 days): <2.0 log cfu/g; Moulds count (Moulds; 0 days): 4.1 log cfu/g; Moulds count (Moulds; 7 days): <2.0 log cfu/g; Moulds count (Moulds; 14 days): <2.0 log cfu/g; Yeast count (Yeast; 0 days): 5.6 log cfu/g; Yeast count (Yeast; 7 days): 2.4 log cfu/g; Yeast count (Yeast; 14 days): <2.0 log cfu/g
CC(O)C(=O)O.CCCCCCCCCCCC(=O)N[C@@H](CCCN=C(N)N)C(=O)OCC [LAE La, LAE lactate] | 2.0 log cfu/g | 2.0 log cfu/g | 2.0 log cfu/g | 2.0 log cfu/g | 2.0 log cfu/g | 2.0 log cfu/g | 2.2 log cfu/g | 2.1 log cfu/g and 2.4 log cfu/g and 2.0 log cfu/g | 2.3 log cfu/g | 2.6 log cfu/g and 2.1 log cfu/g and 2.3 log cfu/g | 2.7 log cfu/g | 2.8 log cfu/g and 2.5 log cfu/g | 3.3 log cfu/g | 3.1 log cfu/g and 3.5 log cfu/g and 3.3 log cfu/g | 3.6 log cfu/g | 3.3 log cfu/g and 3.6 log cfu/g and 3.9 log cfu/g | 4.1 log cfu/g | 4.2 log cfu/g and 4.0 log cfu/g and 3.9 log cfu/g | 6.1 log cfu/g | 2.2 log cfu/g | Aerobes count (Aerobes; 14 days): <2.0 log cfu/g; Moulds count (Moulds; 0 days): 4.2 log cfu/g; Moulds count (Moulds; 7 days): <2.0 log cfu/g; Moulds count (Moulds; 14 days): <2.0 log cfu/g; Yeast count (Yeast; 0 days): 5.4 log cfu/g; Yeast count (Yeast; 7 days): 2.2 log cfu/g; Yeast count (Yeast; 14 days): <2.0 log cfu/g
